Here are results for eight compounds from publication PMC5917092, “Fine-Tuned Enzymatic Hydrolysis of Organosolv Pretreated Forest Materials for the Efficient Production of Cellobiose” (Frontiers in Chemistry, 2018).

As a reminder, the Ki is the dissociation constant of the complex between target and ligand, obtained from inhibition or displacement. As usually defined, the Km is the concentration of substrate that gives half-maximal velocity.

Entries after “also recorded” stand apart in the source; their conditions may differ.

One assay deals with TtCBH7 (Thermothelomyces thermophilus, UniProt G2Q665). Kind of assay: Kinetics and inhibition of TtCBH7 by mono/oligosaccharides with MUG2 as substrate (Lineweaver-Burk). The format is biochemical, Thermothelomyces thermophila. To be noted: for Kmapp: TtCBH7, substrate MUG2, in the presence of 10 mM inhibitor; for Inhibitory effect on TtCBH7 (in words): activity on MUG2, inhibitor 5 and 10 mM. Here is the method:
The release of methyl-umbelliferyl was followed by measuring the absorbance at A350. The inhibition of CBHs by specific mono/oligosaccharides was determined by estimating the enzymatic activity on MUG2 in presence of different inhibitor concentrations (5 and 10 mM). Kinetic analysis of inhibition was carried out on xylose (X1), xylobiose (X2), xylotriose (X3), mannose (M1), mannobiose (M2), mannotriose (M3), glucose (G1), cellobiose (G2), and xylosyl-cellobiose (XC). Lineweaver–Burk plots were drawn to determine Km, Vmax, and inhibition constant (Ki) values.
Figure 4 Inhibition studies of TtCBH7 by glucan, xylan, and mannan mono- and oligo-saccharides. Absorbance at 355 nm was measured after 30 min incubation with MUG2 at concentrations ranging from 0.1 to 2 mM, at 45°C, pH 5.0.

In a further assay the test system is TtCBH6. As to the kind of experiment: Kinetics and inhibition of TtCBH6 by mono/oligosaccharides with MUG2 as substrate (Lineweaver-Burk). Format: biochemical, Thermothelomyces thermophila. Particulars: for Inhibitory effect on TtCBH6 (in words): activity on MUG2, inhibitor 5 and 10 mM. Here is the method:
The release of methyl-umbelliferyl was followed by measuring the absorbance at […]. The inhibition of CBHs by specific mono/oligosaccharides was determined by estimating the enzymatic activity on MUG2 in presence of different inhibitor concentrations (5 and 10 mM). Kinetic analysis of inhibition was carried out on xylose (X1), xylobiose (X2), xylotriose (X3), mannose (M1), mannobiose (M2), mannotriose (M3), glucose (G1), cellobiose (G2), and xylosyl-cellobiose (XC). Lineweaver-Burk plots were drawn to determine Km, Vmax, and inhibition constant (Ki) values.

The mark [1] stands for this setting: TtCBH7, substrate MUG2, inhibitor 5 mM (Km app).
Setting [2] is: TtCBH7, substrate MUG2, inhibitor 10 mM.
Where [3] appears, read: TtCBH7, substrate MUG2, inhibitor 10 mM (Km app).
Setting [4] is: TtCBH6, substrate MUG2, inhibitor 5 mM (Km app).
[5] abbreviates: TtCBH6, substrate MUG2, inhibitor 10 mM (Km app).

Chain of TtCBH7 (G2Q665 entry or part of it): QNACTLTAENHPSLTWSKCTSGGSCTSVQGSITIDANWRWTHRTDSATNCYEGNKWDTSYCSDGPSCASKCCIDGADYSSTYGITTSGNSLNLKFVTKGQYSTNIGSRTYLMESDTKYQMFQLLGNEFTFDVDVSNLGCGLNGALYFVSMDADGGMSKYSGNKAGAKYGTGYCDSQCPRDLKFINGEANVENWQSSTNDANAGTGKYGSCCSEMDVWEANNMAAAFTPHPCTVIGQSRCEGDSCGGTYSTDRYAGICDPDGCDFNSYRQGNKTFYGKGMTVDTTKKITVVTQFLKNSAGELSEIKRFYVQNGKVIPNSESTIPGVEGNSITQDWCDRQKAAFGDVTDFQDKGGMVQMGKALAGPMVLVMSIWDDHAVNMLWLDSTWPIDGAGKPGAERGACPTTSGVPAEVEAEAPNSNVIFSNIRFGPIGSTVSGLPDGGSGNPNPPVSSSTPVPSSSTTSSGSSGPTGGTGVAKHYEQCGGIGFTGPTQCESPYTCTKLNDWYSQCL

Turning to `O=C[C@H](O)[C@@H](O)[C@H](O[C@@H]1O[C@H](CO)[C@@H](O)[C@H](O)[C@H]1O)[C@H](O)CO` [Cellobiose, cellobiose], on TtCBH7, the Kmapp was 6.54 mM. The Ki at TtCBH7 (TtCBH7, substrate MUG2, inhibitor 5 mM) is 1.43 mM; on TtCBH7 (setting [2]) it was 1.59 mM. The “Km/Km^app” value is 4.04 µM on TtCBH7 (setting [1]), 6.54 µM at TtCBH7 (setting [3]), 0.40 µM in the assay on TtCBH6 (setting [4]) and 0.45 µM in the assay on TtCBH6 (setting [5]). Also, the “Inhibitory effect on TtCBH7 (in words)” value on TtCBH7 is given as “strong inhibitor; also recorded: strongly inhibited”. Besides, in the assay on TtCBH6, the “Inhibitory effect on TtCBH6 (in words)” value was “no inhibitory effect”.

As to `OC[C@H]1OC(O)[C@H](O)[C@@H](O)[C@@H]1O` (some centres unmarked) [Glucose, glucose], on TtCBH7, the Kmapp stood at 1.58 mM. In addition, the “Km/Km^app” value on TtCBH7 (setting [1]) was 1.00 µM; on TtCBH7 (setting [3]) it was 1.58 µM; with TtCBH6 (setting [4]), 0.39 µM; in the assay with TtCBH6 (setting [5]) it was 0.41 µM. This compound also had a Ki at TtCBH7 (setting [2]) of 13.2 mM. For the same compound, in the assay with TtCBH6, the “Inhibitory effect on TtCBH6 (in words)” value was “no inhibitory effect”.

As for `Cc1cc(=O)oc2cc(O[C@@H]3O[C@H](CO)[C@@H](O[C@@H]4O[C@H](CO)[C@@H](O)[C@H](O)[C@H]4O)[C@H](O)[C@H]3O)ccc12` [MUG2, 4-methyl-umbelliferyl-β-cellobiose], the Km at TtCBH7 (TtCBH7, absence of any inhibitor) was 900 µM. For the same compound, the “Km/Km^app” value at TtCBH7 (TtCBH7, substrate MUG2, no inhibitor (Km), pH 5.0, 45°C) amounted to 0.90 µM; in the assay on TtCBH6 (TtCBH6, substrate MUG2, no inhibitor (Km), pH 5.0, 45°C), 0.42 µM.

As to `OC[C@H]1O[C@@H](O[C@H]2[C@H](O)[C@H](O)C(O)O[C@@H]2CO)[C@@H](O)[C@@H](O)[C@@H]1O` (some centres unmarked) [Mannobiose, mannobiose], the Kmapp at TtCBH7 was 1.04 mM. Also, the “Km/Km^app” value at TtCBH7 (setting [1]) is 0.91 µM; at TtCBH7 (setting [3]) it was 1.04 µM; in the assay on TtCBH6 (setting [4]) it was 0.38 µM; with TtCBH6 (setting [5]), 0.35 µM.

As to `OC1OC[C@@H](O[C@@H]2OC[C@@H](O)[C@H](O)[C@H]2O)[C@H](O)[C@H]1O` (some centres unmarked) [Xylobiose, xylobiose], the Kmapp on TtCBH7 turned out to be 1.17 mM. The “Km/Km^app” value at TtCBH7 (setting [1]) is 0.81 µM; at TtCBH7 (setting [3]) it was 1.17 µM; with TtCBH6 (setting [4]), 0.44 µM; with TtCBH6 (setting [5]), 0.41 µM. Also, the Ki on TtCBH7 (setting [2]) is 33.3 mM.

Turning to `OC1OC[C@@H](O[C@@H]2OC[C@@H](O[C@@H]3OC[C@@H](O)[C@H](O)[C@H]3O)[C@H](O)[C@H]2O)[C@H](O)[C@H]1O` (some centres unmarked) [Xylotriose, xylotriose], the “Km/Km^app” value at TtCBH7 (setting [1]) turned out to be 0.77 µM; on TtCBH7 (setting [3]) it was 0.95 µM; in the assay on TtCBH6 (setting [4]) it was 0.42 µM; in the assay on TtCBH6 (setting [5]), 0.46 µM. Besides, the “Inhibitory effect on TtCBH7 (in words)” value at TtCBH7 is listed as “very weak inhibitory effect”.

In the case of mannotriose, the “Km/Km^app” value was 0.88 µM on TtCBH7 (setting [1]), 0.98 µM at TtCBH7 (setting [3]), 0.41 µM with TtCBH6 (setting [4]) and 0.44 µM in the assay on TtCBH6 (setting [5]). Further, at TtCBH7, the “Inhibitory effect on TtCBH7 (in words)” value is given as “very weak inhibitory effect”.

Regarding xylosyl-cellobiose, the “Km/Km^app” value came to 0.99 µM at TtCBH7 (setting [1]), 1.01 µM at TtCBH7 (setting [3]), 0.43 µM in the assay with TtCBH6 (setting [4]) and 0.48 µM in the assay on TtCBH6 (setting [5]).
